In one assay the target is T1, BTK (Homo sapiens, UniProt Q06187).
T1 construct: endogenous in cells; host or cells: TMD-8 cells
As to the kind of experiment: BTK degradation in TMD-8 cells (HTRF assay). It counts as cell-based. The note with it: 6 h treatment, HTRF BTK degradation IC50 (DC50). In a few lines: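 BTK levels measured by HTRF (665/620 nm) in lysates of TMD-8 cells after 6 h compound treatment, with antibody incubation overnight at room temperature. Dosing covered 8 points, 6-fold dilutions from 1 mM 500× stocks, 0.2% DMSO final. Four-parameter curve fitting gave DC50.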
A general note: Time-resolved FRET reads energy transfer from a long-lived donor to a nearby acceptor.

For a further assay, the system named is HEK-293 cells. As to the kind of experiment: HEK-293 cytotoxicity detection (CellTiter-Glo). The format is cell-based. The conditions noted are these: Homo sapiens, 72 h incubation, read-out: HEK293. The procedure, abridged:
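Cytotoxicity IC50 derived by four-parameter curve fitting of percent inhibition of CellTiter-Glo luminescence. Compounds tested at 8 doses in 4-fold steps, 0.2% DMSO, on HEK-293 cells for 72 h.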

These results are taken from US12521440B2, “Degradation of bruton's tyrosine kinase (BTK) by conjugation of BTK inhibitors with E3 ligase ligand and methods of use” (BeOne Medicines I GmbH, priority 2021, dated 2026).

Structures are written as SMILES. pIC50: −log10 of the molar value.

T1 sequence (Q06187 whole entry): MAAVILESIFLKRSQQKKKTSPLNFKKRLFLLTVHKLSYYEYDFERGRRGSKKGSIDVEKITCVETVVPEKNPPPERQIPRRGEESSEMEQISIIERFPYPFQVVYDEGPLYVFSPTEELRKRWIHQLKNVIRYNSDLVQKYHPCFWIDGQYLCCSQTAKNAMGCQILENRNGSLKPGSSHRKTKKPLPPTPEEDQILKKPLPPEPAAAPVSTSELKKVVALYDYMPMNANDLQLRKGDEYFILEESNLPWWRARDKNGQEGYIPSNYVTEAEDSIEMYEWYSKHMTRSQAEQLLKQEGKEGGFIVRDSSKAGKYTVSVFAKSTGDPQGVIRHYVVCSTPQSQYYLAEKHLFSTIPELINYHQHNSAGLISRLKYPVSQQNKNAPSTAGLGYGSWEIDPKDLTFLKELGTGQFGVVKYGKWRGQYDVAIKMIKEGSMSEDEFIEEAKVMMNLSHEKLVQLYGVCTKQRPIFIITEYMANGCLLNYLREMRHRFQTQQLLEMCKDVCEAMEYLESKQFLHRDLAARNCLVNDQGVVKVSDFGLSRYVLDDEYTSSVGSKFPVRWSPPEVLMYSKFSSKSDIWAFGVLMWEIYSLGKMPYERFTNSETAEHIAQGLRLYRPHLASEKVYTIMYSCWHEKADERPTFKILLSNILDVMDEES

For orientation: DC50 means the concentration at which degradation of the target reaches its halfway point. A lower DC50 goes with a more potent degrader. Take `Cc1cc(-c2cc(Nc3ccc(N4CCN(CCc5cccc6c5n(C)c(=O)n6C5CCC(=O)NC5=O)CC4)cn3)ncn2)ccc1[C@@H](C)NC(=O)c1nc(C(C)(C)C)no1` (stereo partly drawn) [Example 50, 3-(tert-butyl)-N-((1R)-1-(4-(6-((5-(4-(2-(1-(2,6-dioxopiperidin-3-yl)-3-methyl-2-oxo-2,3-dihydro-1H-benzo[d]imidazol-4-yl)ethyl)piperazin-1-yl)pyridin-2-yl)amino)pyrimidin-4-yl)-2-methylphenyl)ethyl)-1,2,4-oxadiazole-5-carboxamide]: half-maximal degradation on BTK (DC50) was put at 0.632 nM. Moreover, the pIC50 with HEK-293 cells is 6.04.

As for `Cc1cc(-c2cc(Nc3ccc(N4CC5(CN(CC6CCN(c7ccc(N8CCC(=O)NC8=O)cc7)CC6)C5)C4)cn3)ncn2)ccc1[C@@H](C)NC(=O)c1nc(C(C)(C)C)no1` [Example 30, (R)-3-(tert-butyl)-N-(1-(4-(6-((5-(6-((1-(4-(2,4-dioxotetrahydropyrimidin-1(2H)-yl)phenyl)piperidin-4-yl)methyl)-2,6-diazaspiro [3.3]heptan-2-yl)pyridin-2-yl)amino)pyrimidin-4-yl)-2-methylphenyl)ethyl)-1,2,4-oxadiazole-5-carboxamide], at BTK, the half-maximal degradation concentration (DC50) was 0.539 nM. Moreover, the pIC50 in the assay on HEK-293 cells is 6.00.

On BTK, `Cc1cc(CCN2CCN(c3ccc(Nc4cc(-c5ccc([C@@H](C)NC(=O)c6nc(C(C)(C)C)no6)c(C)c5)ncn4)nc3)CC2)ccc1C1CCC(=O)NC1=O` (stereo partly drawn) [Example 48, 3-(tert-butyl)-N-((1R)-1-(4-(6-((5-(4-(4-(2,6-dioxopiperidin-3-yl)-3-methylphenethyl)piperazin-1-yl)pyridin-2-yl)amino)pyrimidin-4-yl)-2-methylphenyl)ethyl)-1,2,4-oxadiazole-5-carboxamide] had a half-maximal degradation concentration (DC50) of 1.44 nM. Moreover, in the assay with HEK-293 cells, the pIC50 is < 5.00.

As for `Cc1cc(-c2cc(Nc3ccc(N4CCN(CC5CN(c6ccc(N7CCC(=O)NC7=O)cc6)C5)CC4)cn3)ncn2)ccc1[C@@H](C)NC(=O)c1nc(C(C)(C)C)no1` [Example 22, (R)-3-(tert-butyl)-N-(1-(4-(6-((5-(4-((1-(4-(2,4-dioxotetrahydropyrimidin-1(2H)-yl)phenyl)azetidin-3-yl)methyl)piperazin-1-yl)pyridin-2-yl)amino)pyrimidin-4-yl)-2-methylphenyl)ethyl)-1,2,4-oxadiazole-5-carboxamide], it took 1.58 nM to reach half-maximal degradation on BTK (DC50). For the same compound, the pIC50 in the assay on HEK-293 cells is < 5.00.

Regarding `Cc1cc(-c2ccnc(Nc3ccc(N4CCN(CC5CCN(c6ccc(N7CCC(=O)NC7=O)cc6)CC5)CC4)cn3)n2)ccc1[C@@H](C)NC(=O)c1nc(C(C)(C)C)no1` [Example 67, (R)-3-(tert-butyl)-N-(1-(4-(2-((5-(4-((1-(4-(2,4-dioxotetrahydropyrimidin-1(2H)-yl)phenyl)piperidin-4-yl)methyl)piperazin-1-yl)pyridin-2-yl)amino)pyrimidin-4-yl)-2-methylphenyl)ethyl)-1,2,4-oxadiazole-5-carboxamide], at BTK, the 50% degradation concentration (DC50) worked out at 10.6 nM. Besides, in the assay on HEK-293 cells, the pIC50 is < 5.00.

Compound `Cc1cc(-c2cc(Nc3ccc(N4CCN(C5CC6(CCN(c7ccc(N8CCC(=O)NC8=O)cc7)CC6)C5)CC4)cn3)ncn2)ccc1[C@@H](C)NC(=O)c1nc(C(C)(C)C)no1` [Example 43, (R)-3-(tert-butyl)-N-(1-(4-(6-((5-(4-(7-(4-(2,4-dioxotetrahydropyrimidin-1(2H)-yl)phenyl)-7-azaspiro[3.5]nonan-2-yl)piperazin-1-yl)pyridin-2-yl)amino)pyrimidin-4-yl)-2-methylphenyl)ethyl)-14-oxadiazole-5-carboxamide] registered a DC50 at BTK of 2.99 nM. Besides, the pIC50 in the assay with HEK-293 cells is < 5.00.

Take `Cc1cc(-c2cc(Nc3ccc(N4CCN(CC5CCN(c6ccc(N7CCC(=O)NC7=O)cc6)CC5)CC4)nn3)ncn2)ccc1[C@@H](C)NC(=O)c1nc(C(C)(C)C)no1` [Example 15]: the DC50 on BTK came out at 0.638 nM. For the same compound, the pIC50 with HEK-293 cells was < 5.00.

`Cc1cc(-c2cc(Nc3ccc(N4CCN(CC5CCN(c6ccc(N7CCC(=O)NC7=O)cc6)CC5)CC4)cn3)ncn2)c(F)cc1[C@@H](C)NC(=O)c1nc(C(C)(C)C)no1` [Example 8, (R)-3-(tert-butyl)-N-(1-(4-(6-((5-(4-((1-(4-(2,4-dioxotetrahydropyrimidin-1(2H)-yl)phenyl)piperidin-4-yl)methyl)piperazin-1-yl)pyridin-2-yl)amino)pyrimidin-4-yl)-5-fluoro-2-methylphenyl)ethyl)-1,2,4-oxadiazole-5-carboxamide] came in with a 50% degradation concentration (DC50) on BTK of 1.48 nM. Further, the pIC50 with HEK-293 cells is < 5.00.

With `Cc1cc(-c2cc(Nc3ccc(C4CN(CC5CCN(c6ccc(N7CCC(=O)NC7=O)cc6)CC5)C4)cn3)ncn2)ccc1[C@@H](C)NC(=O)c1nc(C(C)(C)C)no1` [Example 23, (R)-3-(tert-butyl)-N-(1-(4-(6-((5-(1-((1-(4-(2,4-dioxotetrahydropyrimidin-1(2H)-yl)phenyl)piperidin-4-yl)methyl)azetidin-3-yl)pyridin-2-yl)amino)pyrimidin-4-yl)-2-methylphenyl)ethyl)-1,2,4-oxadiazole-5-carboxamide], the DC50 on BTK was 1.14 nM. Further, the pIC50 with HEK-293 cells is 5.54.

At BTK, `Cc1cc(-c2cc(Nc3ccc(N4CCN(CCc5ccc6c(c5)oc(=O)n6C5CCC(=O)NC5=O)CC4)cn3)ncn2)ccc1[C@@H](C)NC(=O)c1nc(C(C)(C)C)no1` (stereo partly drawn) [Example 49, 3-(tert-butyl)-N-((1R)-1-(4-(6-((5-(4-(2-(3-(2,6-dioxopiperidin-3-yl)-2-oxo-2,3-dihydrobenzo[d]oxazol-6-yl)ethyl)piperazin-1-yl)pyridin-2-yl)amino)pyrimidin-4-yl)-2-methylphenyl)ethyl)-1,2,4-oxadiazole-5-carboxamide] returned a 50% degradation concentration (DC50) of 0.486 nM. For the same compound, in the assay with HEK-293 cells, the pIC50 was < 5.00.

On BTK, `Cc1cc(-c2cc(Nc3ccc(N4CCN(CC5CCN(c6ccc(N7CCC(=O)NC7=O)c(C)c6)CC5)CC4)cn3)ncn2)ccc1[C@@H](C)NC(=O)c1nc(C(C)(C)C)no1` [Example 18, (R)-3-(tert-butyl)-N-(1-(4-(6-((5-(4-((1-(4-(2,4-dioxotetrahydropyrimidin-1(2H)-yl)-3-methylphenyl)piperidin-4-yl)methyl)piperazin-1-yl)pyridin-2-yl)amino)pyrimidin-4-yl)-2-methylphenyl)ethyl)-1,2,4-oxadiazole-5-carboxamide] came in with a DC50 of 1.15 nM. For the same compound, the pIC50 with HEK-293 cells was < 5.00.

At BTK, `Cc1cc(-c2cc(Nc3ccc(N4CCN(CCc5cc(F)c(C6CCC(=O)NC6=O)c(F)c5)CC4)cn3)ncn2)ccc1[C@@H](C)NC(=O)c1nc(C(C)(C)C)no1` (stereo partly drawn) [Example 45, 3-(tert-butyl)-N-((1R)-1-(4-(6-((5-(4-(4-(2,6-dioxopiperidin-3-yl)-3,5-difluorophenethyl)piperazin-1-yl)pyridin-2-yl)amino)pyrimidin-4-yl)-2-methylphenyl)ethyl)-1,2,4-oxadiazole-5-carboxamide] came in with a 50% degradation concentration (DC50) of 1.75 nM. The pIC50 with HEK-293 cells is < 5.00.

Regarding `Cc1cc(-c2cc(Nc3ccc(N4CCN(CCc5ccc(C6CCC(=O)NC6=O)c(F)c5)CC4)cn3)ncn2)ccc1[C@@H](C)NC(=O)c1nc(C(C)(C)C)no1` (stereo partly drawn) [Example 47, 3-(tert-butyl)-N-((1R)-1-(4-(6-((5-(4-(4-(2,6-dioxopiperidin-3-yl)-3-fluorophenethyl)piperazin-1-yl)pyridin-2-yl)amino)pyrimidin-4-yl)-2-methylphenyl)ethyl)-1,2,4-oxadiazole-5-carboxamide], half-maximal degradation on BTK (DC50) was put at 0.96 nM. The pIC50 in the assay on HEK-293 cells is < 5.00.

`Cc1cc(-c2cc(Nc3ccc(N4CCN(C(=O)C5CCN(c6ccc(N7CCC(=O)NC7=O)cc6)CC5)CC4)cn3)ncn2)ccc1[C@@H](C)NC(=O)c1nc(C(C)(C)C)no1` [Example 28, (R)-3-(tert-butyl)-N-(1-(4-(6-((5-(4-(1-(4-(2,4-dioxotetrahydropyrimidin-1(2H)-yl)phenyl)piperidine-4-carbonyl)piperazin-1-yl)pyridin-2-yl)amino)pyrimidin-4-yl)-2-methylphenyl)ethyl)-1,2,4-oxadiazole-5-carboxamide] came in with a half-maximal degradation concentration (DC50) on BTK of 1.66 nM. For the same compound, the pIC50 with HEK-293 cells is < 5.00.

`Cc1cc(-c2cc(Nc3ncc(N4CCN(CC5CCN(c6ccc(N7CCC(=O)NC7=O)cc6)CC5)CC4)s3)ncn2)c(F)cc1[C@@H](C)NC(=O)c1nc(C(C)(C)C)no1` [Example 71, (R)-3-(tert-butyl)-N-(1-(4-(6-((5-(4-((1-(4-(2,4-dioxotetrahydropyrimidin-1(2H)-yl)phenyl)piperidin-4-yl)methyl)piperazin-1-yl)thiazol-2-yl)amino)pyrimidin-4-yl)-5-fluoro-2-methylphenyl)ethyl)-1,2,4-oxadiazole-5-carboxamide] gave a 50% degradation concentration (DC50) at BTK of 17.9 nM. The pIC50 in the assay on HEK-293 cells was < 5.00.

In the case of `Cc1cc(-c2cc(Nc3ccc(N4CCN(CC5CCN(c6ccc(N7CCC(=O)NC7=O)cc6F)CC5)CC4)cc3)ncn2)c(F)cc1[C@@H](C)NC(=O)c1nc(C(C)(C)C)no1` [Example 3, (R)-3-(tert-butyl)-N-(1-(4-(6-((4-(4-((1-(4-(2,4-dioxotetrahydropyrimidin-1(2H)-yl)-2-fluorophenyl)piperidin-4-yl)methyl)piperazin-1-yl)phenyl)amino)pyrimidin-4-yl)-5-fluoro-2-methylphenyl)ethyl)-1,2,4-oxadiazole-5-carboxamide], at BTK, the half-maximal degradation concentration (DC50) amounted to 104 nM. The pIC50 in the assay with HEK-293 cells is < 5.00.
